Test results taken from the supplement of paper PMC5762512.

Columns and labels:
Experiment in all cases: IC50 cell viability (Alamar Blue, 96 h)
[1] = system: PER-403
Method: (§1)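 Cells in log-phase growth were seeded in 96-well plates and treated with drug for 96 h at 37°C using 8-point serial dilutions from 0.0025 to 10 µM. Viability was read by Alamar Blue fluorescence after 6 h and normalised to positive and vehicle (DMSO) controls. IC50 values were fitted in ActivityBase; the value given is the mean of two independent experiments.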

[2] = system: TC797
Method: as §1

[3] = system: TY82
Method: as §1

[4] = system: P896-CL
Method: as §1

[5] = system: 8645
Method: as §1

[6] = system: PER-624
Method: as §1

[7] = system: HS-27
Method: as §1

[8] = system: PER-535
Method: as §1

[9] = system: HCC2429
Method: as §1

[10] = system: 10326
Method: as §1

[11] = system: PER-891
Method: as §1

[12] = system: PER-536
Method: as §1

[13] = system: 11060
Method: as §1

[14] = system: CAKI-1
Method: as §1

[15] = system: A549
Method: as §1

[16] = system: 14169
Method: as §1

[17] = system: PER-704
Method: as §1

[18] = system: RPMI2650
Method: as §1

[19] = system: WI-38
Method: as §1

[20] = system: PER-712
Method: as §1

SMILES | IC50 cell viability [1] | IC50 cell viability [2] | IC50 cell viability [3] | IC50 cell viability [4] | IC50 cell viability [5] | IC50 cell viability [6] | IC50 cell viability [7] | IC50 cell viability [8] | IC50 cell viability [9] | IC50 cell viability [10] | IC50 cell viability [11] | IC50 cell viability [12] | IC50 cell viability [13] | IC50 cell viability [14] | IC50 cell viability [15] | IC50 cell viability [16] | IC50 cell viability [17] | IC50 cell viability [18] | IC50 cell viability [19] | IC50 cell viability [20]
Cc1csc(-c2nnc(Nc3ccc(Oc4ncccc4-c4ccnc(N)n4)cc3)c3ccccc23)c1 [AMG-900] | < 2.5 nM | > 10000 nM | > 10000 nM | 5020 nM | > 10000 nM | > 10000 nM | > 10000 nM | 112 nM | 7.26 nM | 3.75 nM | > 10000 nM | > 10000 nM | 98.1 nM | > 10000 nM | 6.42 nM | 3.94 nM | > 10000 nM | > 10000 nM | 7360 nM | > 10000 nM
COc1cc(Nc2ncc3c(n2)-c2ccc(Cl)cc2C(c2c(F)cccc2OC)=NC3)ccc1C(=O)O [Alisertib] | 38.1 nM | > 10000 nM | > 10000 nM | 2410 nM | 327 nM | 873 nM | 5390 nM | 37.4 nM | 229 nM | 149 nM | > 10000 nM | 1580 nM | 168 nM | 8100 nM | 249 nM | 67.8 nM | 4880 nM | > 10000 nM | 6140 nM | 306 nM
CCN(CCCOc1ccc2c(Nc3cc(CC(=O)Nc4cccc(F)c4)[nH]n3)ncnc2c1)CCOP(=O)(O)O [Barasertib] | 19.4 nM | > 10000 nM | > 10000 nM | 5010 nM | 986 nM | > 10000 nM | 1900 nM | > 10000 nM | 20.9 nM | 11.7 nM | > 10000 nM | > 10000 nM | 37.6 nM | > 10000 nM | 203 nM | 7.07 nM | > 10000 nM | > 10000 nM | 6910 nM | > 10000 nM
COc1cccc2c1C(=O)c1c(O)c3c(c(O)c1C2=O)C[C@@](O)(C(C)=O)C[C@@H]3O[C@H]1C[C@H](N)[C@H](O)[C@H](C)O1 [Daunorubicin] | 14.9 nM | 153 nM | 227 nM | 201 nM | 12.2 nM | 22 nM | 90.1 nM | 218 nM | 51.1 nM | 42.1 nM | 475 nM | 339 nM | 29.5 nM | 1030 nM | 13.1 nM | 9.69 nM | 110 nM | 285 nM | 87.8 nM | 384 nM
C[C@H]1O[C@@H](O[C@H]2[C@@H](O)C[C@H](O[C@H]3[C@@H](O)C[C@H](O[C@H]4CC[C@@]5(C)[C@H](CC[C@@H]6[C@@H]5C[C@@H](O)[C@]5(C)[C@@H](C7=CC(=O)OC7)CC[C@]65O)C4)O[C@@H]3C)O[C@@H]2C)C[C@H](O)[C@@H]1O [Digoxin] | 57.7 nM | 226 nM | 83.7 nM | 158 nM | 82.5 nM | 99.7 nM | 58.9 nM | 218 nM | 96.9 nM | 41.5 nM | 103 nM | 598 nM | 86.2 nM | 323 nM | 16.5 nM | 52 nM | 200 nM | 97.6 nM | 34 nM | 299 nM
CC(=O)O[C@@]12CO[C@@H]1C[C@H](O)[C@@]1(C)C(=O)[C@H](O)C3=C(C)[C@@H](OC(=O)[C@H](O)[C@@H](NC(=O)OC(C)(C)C)c4ccccc4)C[C@@](O)([C@@H](OC(=O)c4ccccc4)[C@H]21)C3(C)C [Docetaxel] | < 2.5 nM | 3.88 nM | 9.64 nM | 3.08 nM | < 2.5 nM | < 2.5 nM | < 2.5 nM | 6.25 nM | < 2.5 nM | < 2.5 nM | > 10000 nM | 16.4 nM | < 2.5 nM | 5000 nM | < 2.5 nM | < 2.5 nM | 4.11 nM | > 10000 nM | 2.82 nM | 3.2 nM
C/C(=C\c1csc(C)n1)[C@@H]1C[C@@H]2O[C@]2(C)CCC[C@H](C)[C@H](O)[C@@H](C)C(=O)C(C)(C)[C@@H](O)CC(=O)O1 [Epothilone B] | < 2.5 nM | 3.41 nM | 9.79 nM | 3.22 nM | < 2.5 nM | < 2.5 nM | < 2.5 nM | 3.27 nM | < 2.5 nM | < 2.5 nM | 5010 nM | 7.59 nM | < 2.5 nM | 16.2 nM | < 2.5 nM | < 2.5 nM | 3.8 nM | > 10000 nM | < 2.5 nM | < 2.5 nM
C#Cc1cccc(Nc2ncnc3cc(OCCOC)c(OCCOC)cc23)c1 [Erlotinib] | 8770 nM | > 10000 nM | > 10000 nM | 2580 nM | 1160 nM | 3260 nM | 4470 nM | > 10000 nM | > 10000 nM | > 10000 nM | 7100 nM | > 10000 nM | 8680 nM | > 10000 nM | 2740 nM | > 10000 nM | > 10000 nM | > 10000 nM | 3120 nM | > 10000 nM
CN1CC[C@H](c2c(O)cc(O)c3c(=O)cc(-c4ccccc4Cl)oc23)[C@H](O)C1 [Flavopiridol] | 46.6 nM | 84.4 nM | 64.7 nM | 24.8 nM | 17.7 nM | 42.8 nM | 108 nM | 131 nM | 40.3 nM | 25.4 nM | 69.5 nM | 273 nM | 27.2 nM | 122 nM | 61 nM | 24.8 nM | 70.8 nM | 140 nM | 84.6 nM | 82.5 nM
CCCOc1ccn2c(C(C)=O)cc(-c3ccccc3S(C)(=O)=O)c2c1 [GSK-2801] | > 10000 nM | > 10000 nM | > 10000 nM | > 10000 nM | > 10000 nM | > 10000 nM | > 10000 nM | > 10000 nM | > 10000 nM | > 10000 nM | > 10000 nM | > 10000 nM | > 10000 nM | > 10000 nM | > 10000 nM | > 10000 nM | > 10000 nM | > 10000 nM | > 10000 nM | > 10000 nM
COc1cc2ncnc(Nc3ccc(F)c(Cl)c3)c2cc1OCCCN1CCOCC1 [Gefitinib] | > 10000 nM | > 10000 nM | > 10000 nM | 1450 nM |  | 2210 nM | 7850 nM | > 10000 nM | > 10000 nM | 5890 nM | 6540 nM | > 10000 nM | 5370 nM | > 10000 nM | 2740 nM | 6050 nM | > 10000 nM | > 10000 nM | 5190 nM | > 10000 nM
